Assay results from patent US11666594B2, “Antibody-drug conjugates comprising a cyclic dinucleotide” (TAKEDA PHARMACEUTICAL COMPANY LIMITED, priority 2016, dated 2023).
Structures can show the parent of a compound that is named as a salt. Where two headings read alike, the source gives them in different places. One block for each compound: values may come before it.

Assays:
WT STING = WT STING (Homo sapiens (Human), UniProt Q86WV6, H232R); assay: Reporter gene assay (2): ISRE NanoLuc reporter in 293T cells, with digitonin, WT STING; type: cell-based; settings: for EC50: with digitonin, read-out: STING-293T cell EC50 (μM) Reporter with digitonin (B); for activation at 30 µM: HEK-293T, read-out: activity level against WT STING of test compound (30 μM)
Sequence of WT STING (Q86WV6 whole entry H232R): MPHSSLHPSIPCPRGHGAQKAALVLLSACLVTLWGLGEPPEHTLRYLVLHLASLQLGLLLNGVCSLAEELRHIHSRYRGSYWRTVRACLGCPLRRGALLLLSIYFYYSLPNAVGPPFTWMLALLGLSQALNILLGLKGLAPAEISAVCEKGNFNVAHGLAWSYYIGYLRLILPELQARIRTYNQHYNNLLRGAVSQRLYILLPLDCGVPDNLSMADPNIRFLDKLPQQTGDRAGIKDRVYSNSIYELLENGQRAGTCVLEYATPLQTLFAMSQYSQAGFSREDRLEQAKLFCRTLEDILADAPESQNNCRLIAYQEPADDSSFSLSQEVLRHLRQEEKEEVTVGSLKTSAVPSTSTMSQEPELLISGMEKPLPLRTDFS
Protocol: The culture solution was removed, and the test compound diluted with assay buffer (50 mM HEPES pH 7.0, 100 mM KCl, 3 mM MgCl2, 85 mM Sucrose, 0.1 mM DTT, 0.2% BSA, 1 mM ATP, 0.1 mM GTP, 10 μg/ml Digitonin) was added thereto by 15 μL/well. […] Luminescence signals derived from firefly luciferase and NanoLuc Luciferase were each measured using EnVision (PerkinElmer, Waltham, Mass., US) according to Nano-Glo Dual-Luciferase Reporter Assay System (Promega, Fitchburg, Wis., US) protocol. The ratio of the count of NanoLuc Luciferase divided by the count of firefly luciferase was used for culculation.

THP1-Dual cells = assay: THP-1 Dual Lucia reporter gene assay; type: cell-based, human; settings: 20 hours; read-out: THP-1 Dual cell EC50 (μM) Reporter
Protocol: THP1-Dual™ cells (InvivoGen #thpd-nfis) were derived from the human THP-1 monocyte cell line by stable integration of the Lucia luciferase gene, a secreted luciferase reporter gene, under the control of an ISG54 (interferon-stimulated gene) minimal promoter in conjunction with five interferon (IFN)-stimulated response elements. On the day of experiment, the cells were plated to a black, 384-well plate (Corning 356697) at 7500 cells/25 μL per well density in growth media (RPMI 1640, 2 mM L-glutamine, 25 mM HEPES, 10% heat-inactivated fetal bovine serum, 100 μg/mL Normocin™, 100 U/mL-100 μg/mL Pen-Strep, 10 μg/mL of blasticidin, and 100 μg/mL of Zeocin). The cell plates were dosed with 62.5 nL of the testing compounds, and then incubated at 37° C. for 20 hours. At the end of the incubation, 15 μL/well of the QUANTI-Luc™ (InvivoGen #rep-qlc1) were added, and luminescence was measured immediately using the LeadSeeker.

[1] = Human plasma stability assay; type: in vitro ADME; settings: elimination rate constant k; heparinized human plasma, 37° C., up to 24 hours
Protocol: The compound was incubated in heparinized human plasma at 37° C. for 0, 1, 2, 4, 8 and 24 hours, and the change in compound concentration was measured by LC/MS/MS method. The elimination rate constant (=k(/h)) was calculated based on the fitted curve assuming the exponential decrease of concentration as follows; concentration at time x=initial concentration*exp(−k*x).

CT-26 mouse tumor cells = assay: Anti-tumor effect in colon carcinoma CT-26 syngeneic mice model; type: in vivo; settings: CT-26, Balb/C mice; intravenous, q3dx3; Ex3a 30 mg/kg, Ex14 1.0 mg/kg
Protocol: (§1) 8×10^4 B^16F10 and 2×10^5 CT-26 mouse tumor cells were subcutaneously implanted in the flank of female C57BL/6 (B16F10) and Balb/C (CT-26) mice (n=7 per group). Vehicle (1×PBS), compound Ex3a (30 mg/kg) or Ex14 (1.0 mg/kg) were intravenously administered (final volume of […]) to tumor-bearing mice once the tumor volume has reached 100 mm^3 (Day 0). Vehicle, Ex3a or Ex14 were given every 3 days for a total of 3 doses (q3dx3). Tumor and body weight measurements were taken three times per week using vernier calipers and mettler scale, respectively. Tumor volumes were determined by multiplying the square of the width (‘W’), measured along the […] of the tumor, by one-half the length (‘L’) measured along the […] of the tumor (V=W^2×0.5 L)

B16F10 mouse tumor cells = assay: Anti-tumor effect in B16F10 syngeneic mice model; type: in vivo; settings: B16F10, C57BL/6 mice; intravenous, q3dx3; Ex3a 30 mg/kg, Ex14 1.0 mg/kg
Protocol: as §1

[2] = 30 μM, digitonin, 2′,3′-cGAMP (30 μM) = 100%

Compound: Nc1ncnc2c1ncn2[C@@H]1O[C@@H]2COP(=O)(O)O[C@@H]3[C@H](O)[C@@H](COP(=O)(S)O[C@H]2[C@H]1F)O[C@H]3n1cc(F)c2c(=O)[nH]cnc21 (stereo partly drawn) [Ex3a, disodium (5R,7R,8R,2aR,14R,15R,5aR,16R)-14-(6-amino-9H-purin-9-yl)-15-fluoro-7-(5-fluoro-4-oxo-3,4-dihydro-7H-pyrrolo[2,3-d]pyrimidin-7-yl)-16-hydroxy-2-sulfidooctahydro-12H-5,8-methanofuro[3,2-1][1,3,6,9,11,2,10]pentaoxadiphosphacyclotetradecin-10-olate 2,10-dioxide]
EC50 (WT STING): 0.13 µM | EC50 (THP1-Dual cells): 5.6 µM | Human plasma stability [1]: 0.58 h⁻¹ | anti-tumor effect (CT-26 mouse tumor cells): anti-tumor effects were observed | anti-tumor effect (B16F10 mouse tumor cells): anti-tumor effects were observed

Compound: Nc1ncnc2c1ncn2[C@@H]1O[C@@]23CO[C@@H]1[C@@H]2OP(=O)(S)OC[C@H]1O[C@@H](n2cc(F)c4c(=O)[nH]cnc42)[C@H](OP(=O)(O)OC3)[C@@H]1O (stereo partly drawn) [Example 17, 7-((5R,7R,8R,12aR,14R,15R,15aS,18R)-14-(6-amino-9H-purin-9-yl)-10,18-dihydroxy-2,10-dioxido-2-sulfanylhexahydro-14H-15,12a-(epoxymethano)-5,8-methanofuro[3,2-1][1,3,6,9,11,2,10]pentaoxadiphosphacyclotetradecin-7(12H)-yl)-5-fluoro-3,7-dihydro-4H-pyrrolo[2,3-d]pyrimidin-4-one di-trimethylamine salt]
activation at 30 µM (WT STING): 110%

activation at 30 µM (WT STING; [2]): 97%
Compound: Nc1ncnc2c1ncn2[C@@H]1O[C@@H]2COP(=O)(O)O[C@@H]3[C@H](O)[C@@H](COP(=O)(O)O[C@H]2[C@H]1F)O[C@H]3n1cc(F)c2c(=O)[nH]cnc21 [Example 1, 7-((5R,7R,8R,12aR,14R,15R,15aR,16R)-14-(6-amino-9H-purin-9-yl)-15-fluoro-2,10,16-trihydroxy-2,10-dioxidooctahydro-12H-5,8-methanofuro[3,2-1][1,3,6,9,11,2,10]pentaoxadiphosphacyclotetradecin-7-yl)-5-fluoro-3,7-dihydro-4H-pyrrolo[2,3-d]pyrimidin-4-one di-triethylamine salt]

activation at 30 µM (WT STING; [2]): 114%
Compound: Nc1ncnc2c1ncn2[C@@H]1O[C@@]23CO[C@@H]1[C@@H]2OP(=O)(O)OC[C@H]1O[C@@H](n2cc(F)c4c(=O)[nH]cnc42)[C@H](OP(=O)(O)OC3)[C@@H]1O [Example 16, 7-((5R,7R,8R,12aR,14R,15R,15aS,18R)-14-(6-amino-9H-purin-9-yl)-2,10,18-trihydroxy-2,10-dioxidohexahydro-14H-15,12a-(epoxymethano)-5,8-methanofuro[3,2-1][1,3,6,9,11,2,10]pentaoxadiphosphacyclotetradecin-7(12H)-yl)-5-fluoro-3,7-dihydro-4H-pyrrolo[2,3-d]pyrimidin-4-one di-triethylamine salt]

Compound: Nc1nc2c(ncn2[C@@H]2O[C@@H]3COP(=O)(O)O[C@@H]4[C@H](O)[C@@H](COP(=O)(O)O[C@H]3[C@H]2F)O[C@H]4n2cc(F)c3c(=O)[nH]cnc32)c(=O)[nH]1 [Example 19, 2-amino-9-((5R,7R,8R,12aR,14R,15R,15aR,16R)-15-fluoro-7-(5-fluoro-4-oxo-3,4-dihydro-7H-pyrrolo[2,3-d]pyrimidin-7-yl)-2,10,16-trihydroxy-2,10-dioxidooctahydro-12H-5,8-methanofuro[3,2-1][1,3,6,9,11,2,10]pentaoxadiphosphacyclotetradecin-14-yl)-1,9-dihydro-6H-purin-6-one di-triethylamine salt]
activation at 30 µM (WT STING): 101%

Compound: Nc1nc2c(ncn2[C@@H]2O[C@@H]3COP(=O)(O)O[C@H]4[C@@H](O)[C@H](n5cnc6c(N)ncnc65)O[C@@H]4COP(=O)(O)O[C@@H]2[C@@H]3O)c(=O)[nH]1 [cGAMP, 2′,3′-cGAMP, reference compound]
Human plasma stability [1]: 1.39 h⁻¹

activation at 30 µM (WT STING; [2]): 102% | EC50 (WT STING): 0.19 µM | Human plasma stability [1]: <0.01 h⁻¹
Compound: Nc1ncnc2c1ncn2[C@@H]1O[C@@H]2COP(=O)(S)O[C@@H]3[C@H](O)[C@@H](COP(=O)(S)O[C@H]2[C@H]1O)O[C@H]3n1cc(F)c2c(=O)[nH]cnc21 (stereo partly drawn) [Example 5, 7-((5R,7R,8R,12aR,14R,15R,15aS,16R)-14-(6-amino-9H-purin-9-yl)-15,16-dihydroxy-2,10-dioxido-2,10-disulfanyloctahydro-12H-5,8-methanofuro[3,2-1][1,3,6,9,11,2,10]pentaoxadiphosphacyclotetradecin-7-yl)-5-fluoro-3,7-dihydro-4H-pyrrolo[2,3-d]pyrimidin-4-one di-triethylamine salt (Optical Isomer)]

EC50 (WT STING): 0.13 µM | Human plasma stability [1]: <0.01 h⁻¹
Compound: Nc1ncnc2c1ncn2[C@@H]1O[C@@H]2COP(=O)(S)O[C@@H]3[C@H](O)[C@@H](COP(=O)(S)O[C@H]2[C@H]1F)O[C@H]3n1cc(F)c2c(=O)[nH]cnc21 (stereo partly drawn) [Example 14, 7-((2R,5R,7R,8R,10R,12aR,14R,15R,15aR,16R)-14-(6-amino-9H-purin-9-yl)-15-fluoro-16-hydroxy-2,10-dioxido-2,10-disulfanyloctahydro-12H-5,8-methanofuro[3,2-1][1,3,6,9,11,2,10]pentaoxadiphosphacyclotetradecin-7-yl)-5-fluoro-3,7-dihydro-4H-pyrrolo[2,3-d]pyrimidin-4-one disodium salt]
anti-tumor effect (CT-26 mouse tumor cells): anti-tumor effects were observed | anti-tumor effect (B16F10 mouse tumor cells): anti-tumor effects were observed

Compound: Nc1nc2c(ncn2[C@@H]2O[C@@H]3COP(=O)(O)O[C@H]4[C@@H](O)[C@H](c5cnn6c(N)ncnc56)O[C@@H]4COP(=O)(O)O[C@@H]2[C@@H]3O)c(=O)[nH]1 [Example 13, 2-amino-9-((5R,7R,8R,12aR,14S,15S,15aS,16R)-14-(4-aminopyrazolo[1,5-a][1,3,5]triazin-8-yl)-2,10,15,16-tetrahydroxy-2,10-dioxidooctahydro-12H-5,8-methanofuro[3,2-1][1,3,6,9,11,2,10]pentaoxadiphosphacyclotetradecin-7-yl)-1,9-dihydro-6H-purin-6-one di-triethylamine salt]
activation at 30 µM (WT STING): 99%

Compound: Nc1ncnc2c1ncn2[C@@H]1O[C@@H]2COP(=O)(O)O[C@@H]3[C@H](O)[C@@H](COP(=O)(S)O[C@H]2[C@H]1F)O[C@H]3n1cc(F)c2c(=O)[nH]cnc21 (stereo partly drawn) [Example 3, 7-((2R,5R,7R,8R,12aR,14R,15R,15aR,16R)-14-(6-amino-9H-purin-9-yl)-15-fluoro-10,16-dihydroxy-2,10-dioxido-2-sulfanyloctahydro-12H-5,8-methanofuro[3,2-1][1,3,6,9,11,2,10]pentaoxadiphosphacyclotetradecin-7-yl)-5-fluoro-3,7-dihydro-4H-pyrrolo[2,3-d]pyrimidin-4-one 1.7 triethylamine salt]
activation at 30 µM (WT STING; [2]): 97%

activation at 30 µM (WT STING; [2]): 99%
Compound: Nc1ncnc2c1ncn2[C@@H]1O[C@@H]2COP(=O)(O)O[C@@H]3[C@H](O)[C@@H](COP(=O)(O)O[C@H]2[C@H]1F)O[C@H]3n1cc(F)c2c(=O)[nH]cnc21 [Example 1a, 7-((5R,7R,8R,12aR,14R,15R,15aR,16R)-14-(6-amino-9H-purin-9-yl)-15-fluoro-2,10,16-trihydroxy-2,10-dioxidooctahydro-12H-5,8-methanofuro[3,2-1][1,3,6,9,11,2,10]pentaoxadiphosphacyclotetradecin-7-yl)-5-fluoro-3,7-dihydro-4H-pyrrolo[2,3-d]pyrimidin-4-one disodium salt]
